Literature values in patent publication US6491840B1, “Polymer compositions having specified PH for improved dispensing and improved stability of wrinkle reducing compositions and methods of use” (The Procter & Gamble Company, priority 2000, dated 2002).

ClC=CC[N+]12CN3CN(CN(C3)C1)C2.[Cl-] [Dowicil 200, 1-(3-Chlorallyl)-3,5,7-triaza-1-azoniaadamantane chloride]
solubility in water: freely soluble in water
